{"source": "patent US20220062317A1", "about": "“NA+/K+ ATPASE INHIBITORS FOR USE IN THE PREVENTION OR TREATMENT OF METASTASIS” (UNIVERSITÄT BASEL, priority 2018, published 2022)", "key": {"[1]": {"system": "BR16 CTC-derived cells", "experiment": "FDA-approved compound screen for CTC cluster dissociation (high content imaging)", "format": "cell-based, human", "details": "even at lowest concentration tested (0.1 μM), 2 days, hypoxia", "experimental": "In order to identify actionable vulnerabilities of CTC clusters, and to test whether the epigenetic and transcriptional features of clustered CTCs are reversible upon cluster dissociation into single cells the following steps were undertaken. First, the expression of all known cell-cell junction (CCJ) components in patient samples obtained from normal breast (TGCA REF), breast cancer (TOGA REF), single CTCs and CTC clusters were assessed (Aceto et al. Cell 2014). While breast cancer cells tend to only partially reduce their CCJ repertoire compared to normal breast cells, CTCs express only a small fraction of CCJ components, likely as a consequence to their increased motility. Yet, CTC clusters retain a higher number of CCJs as compared to single CTCs. […] To this end, 2′486 FDA-approved compounds were evaluated for their ability to dissociate clusters of human breast CTC-derived cells. Cluster dissociation was assessed using a high content screening microscope and comparing cells treated with each individual compound to steady state clustered BR16 cells and 40 μm-filtered BR16 single cell suspension as negative and positive controls, respectively (FIG. 4a). […] For the majority of the 2′486 FDA-approved compounds, when using a 5 μM concentration for 2 days in hypoxic conditions, no detectable reduction in cell viability (>70% viability) nor mean cluster size (>450 μm2) in BR16 CTC-derived cells was observed. […] These compounds include inhibitors of Na^+/K^+ ATPases (n=6), HDACs (n=2), nucleotide biosynthesis (n=5), kinases (n=4), GPCRs (n=2), cholesterol biosynthesis (n=1), nuclear export (n=1), tubulin (n=9), as well as DNA binding compounds (n=8) and antibiotics (n=1).\nA library containing 2,486 FDA-approved compounds was purchased from the Nexus Platform ETH Zurich. Each compound was resuspended using CTC medium at a 15 μM concentration and 20 μl were aliquoted in duplicate in a total of 64 Flat Bottom Clear Ultra Low attachment 96-well plates (Corning, Cat #3474).\nTo reduce cluster size in CTC derived cell lines, a 40 μm cell strainer was used (Corning, Cat #431750). […] Plates were incubated in hypoxia (5% oxygen) for 2 days and then 20 μl were transferred into a 96 well Black/clear Tissue culture treated plate (BD Falcon, Cat #353219) containing 40 μl of D-PBS (Invitrogen, Cat #14190169) and stained for 1 hr at 37° C. with a final concentration of 4 μM Hoechst 34580 (Invitrogen, Cat #H21486), 2 μM TMRM (Invitrogen, Cat #T668) and 4 μM TOTO-3 (Invitrogen, Cat #T3604). For each plate, two positive controls (non-treated cells) and two negative controls (non-treated and […] cells) were included. Z-factors were calculated per individual plate using the following formula: Z′=1−3(σs+σc)/|μs−μc|^3 (σ: standard deviation, μ: mean, s: positive control and c: negative control) (Martin et al., PLoS One 9, e88338, 2014) and ranged between 0.62-0.937. Plates were scanned using Operetta High Content Imaging System (Perkin Elmer) and cluster analysis was performed using Harmony High Content Imaging and Analysis Software (Perkin Elmer)."}, "[2]": {"system": "BRx50 human CTC-derived cells", "experiment": "FDA-approved compound screen for CTC cluster dissociation (high content imaging)", "format": "cell-based", "details": "even at lowest concentration tested (0.1 μM)"}, "[3]": {"system": "BR16 CTC cell line", "experiment": "17-day treatment, WGBS and i-cisTarget analysis of DMRs that gain methylation", "format": "cell-based, human", "details": "20 nM, 17-day treatment", "experimental": "(§1) In order to assess the effect of clustering on DNA methylation patterns and proliferation signature directly BR16 and BRx50 cell lines were cultured for 17 days to ensure that at least 4 divisions would take place. This is to allow proper time for DNA methylation remodeling to take place.\n(§2) Under these conditions, for both CTC derived cell lines, a subset of cluster-associated hypomethylated DMRs from patient and xenografts regain ≥20% methylation.\n(§3) Proteinase K digestion and bisulfite treatment was performed according to manufacturer's instructions for EZ DNA Methylation Direct Kit (Zymo, Cat #D5020). Bisulfite-treated DNA was eluted using 9 μl of Elution Buffer and used for library generation with TruSeq DNA methylation kit (Illumina, Cat #EGMK91396) according to manufacturer's instructions. For amplification, 18 cycles were performed using Failsafe Enzyme (Illumina, Cat #FSE51100) and indexes were introduced with Index Primers' Kit (Illumina, Cat #EGIDX81312). Library purification was performed using Agencourt AMPure XP beads at a ratio of 1:1 according to manufacturer's instructions. To avoid DNA loss during pipetting steps, Corning DeckWork low binding barrier pipet tips were used (Sigma, Cat #CLS4135-4X960EA). Library concentration was estimated using Qubit DS DNA HS Assay Kit according to manufacturer's instructions (Invitrogen, Cat #Q32854).\n(§4) An enrichment score (ES) indicates the over- or underrepresentation of a certain object within a sample of many objects (=enrichment). […] A negative enrichment score indicates the opposite, namely that a feature is less present than to be expected by the values of other features in the sample. […] An enrichment score can be normalized by dividing a specific ES by the mean of the enrichment scores for all objects in the dataset to yield a normalized enrichment score (NES). Normalization of the enrichment score accounts for differences in gene set size and in correlations between gene sets and the expression dataset; therefore, a normalized enrichment scores (NES) can be used to compare analysis results across gene sets. Only TFBS with a NES score […] shown in the analysis."}, "[4]": {"system": "BRx50 CTC cell line", "experiment": "17-day treatment, WGBS and i-cisTarget analysis of DMRs that gain methylation", "format": "cell-based, human", "details": "20 nM", "experimental": "as §1, §2, §3, §4"}, "[5]": {"system": "BR16 cells", "experiment": "Tail vein injection of in vitro pre-treated BR16 cells, metastasis seeding", "format": "in vivo, NSG mice", "experimental": "To test whether ouabain and digitoxin would also enable CTC clusters disruption in vivo, the inventors took a dual approach. First, the inventors tested whether a 17-day in vitro treatment with ouabain and digitoxin would translate into a reduced ability of the treated cells to efficiently seed metastasis in untreated mice (FIG. 7A). To this end, upon treatment, BR16 cells stably expressing GFP-luciferase were injected into the tail vein of NSG mice and noninvasively monitored through luminescence imaging for their ability to seed and propagate metastatic lesions.\nFor tail vein experiments, NOD SCID Gamma (NSG) mice (Jackson Labs) were injected with 1×10^6 BR16-mCherry cells resuspended in 100 μl D-PBS and monitored with IVIS Lumina II (Perkin Elmer). For CTC xenograft mouse model isolation, 1×10^6 LM2-GFP, 1×10^6 BRx50-GFP or 1×10^6 BR16-GFP cells were resuspended in 100 μl of 50% Cultrex PathClear Reduced Growth Factor Basement Membrane Extract (R&D Biosystems, Cat #3533-010-02) in D-PBS and injected orthotopically in NSG mice. Blood draw was performed 4-5 weeks after tumor onset for LM2 cells, 5-6 months after tumor onset for BR16 and 6-7 months after tumor onset for BRx50 cells."}}, "note": "Several values for one entry are separate records, joined by “and”; a condition that tells them apart may be missing. Identical values can stand only once."}
{"smiles": "C[C@H]1O[C@@H](O[C@H]2[C@@H](O)C[C@H](O[C@H]3[C@@H](O)C[C@H](O[C@H]4CC[C@@]5(C)[C@H](CC[C@@H]6[C@@H]5CC[C@]5(C)[C@@H](C7=CC(=O)OC7)CC[C@]65O)C4)O[C@@H]3C)O[C@@H]2C)C[C@H](O)[C@@H]1O", "note": "[digitoxin, Digitoxin]", "values": [{"measurement": "mean cluster size", "setting": "[1]", "result": "significant decrease in mean cluster size"}, {"measurement": "mean cluster size", "setting": "[2]", "result": "significant decrease in mean cluster size"}, {"measurement": "NES score of TFBS BDP1 in DMRs with ≥20% gain in methylation", "setting": "[3]", "result": "4.18,"}, {"measurement": "NES score of TFBS CEBPD in DMRs with ≥20% gain in methylation", "setting": "[3]", "result": 3.76}, {"measurement": "NES score of TFBS EZH2 in DMRs with ≥20% gain in methylation", "setting": "[3]", "result": 4.63}, {"measurement": "NES score of TFBS FOS in DMRs with ≥20% gain in methylation", "setting": "[3]", "result": "6.40 and 3.63 and 3.25"}, {"measurement": "NES score of TFBS FOXG1/O1 in DMRs with ≥20% gain in methylation", "setting": "[3]", "result": 3.61}, {"measurement": "NES score of TFBS IRX3 in DMRs with ≥20% gain in methylation", "setting": "[3]", "result": 5}, {"measurement": "NES score of TFBS IRX6 in DMRs with ≥20% gain in methylation", "setting": "[3]", "result": "5 and 3.67"}, {"measurement": "NES score of TFBS KDM5A in DMRs with ≥20% gain in methylation", "setting": "[3]", "result": 4.355}, {"measurement": "NES score of TFBS MEIS1 in DMRs with ≥20% gain in methylation", "setting": "[3]", "result": 3.11}, {"measurement": "NES score of TFBS RORA in DMRs with ≥20% gain in methylation", "setting": "[3]", "result": "4.93 and 3.45"}, {"measurement": "NES score of TFBS SOX2 in DMRs with ≥20% gain in methylation", "setting": "[3]", "result": 3.22}, {"measurement": "NES score of TFBS SOX18 in DMRs with ≥20% gain in methylation", "setting": "[3]", "result": "3.99 and 3.91"}, {"measurement": "NES score of TFBS STAT3 in DMRs with ≥20% gain in methylation", "setting": "[3]", "result": 3.31}, {"measurement": "NES score of TFBS YAP5 in DMRs with ≥20% gain in methylation", "setting": "[3]", "result": "5.4 and 5.32 and 4.56"}, {"measurement": "NES score of TFBS ZNF92 in DMRs with ≥20% gain in methylation", "setting": "[3]", "result": 3.44}, {"measurement": "number of DMRs with ≥20% gain in methylation", "setting": "[3]", "result": "(n = 150)"}, {"measurement": "NES score of TFBS BCL11A in DMRs with ≥20% gain in methylation", "setting": "[4]", "result": 7.65}, {"measurement": "NES score of TFBS BDP1 in DMRs with ≥20% gain in methylation", "setting": "[4]", "result": 6.83}, {"measurement": "NES score of TFBS BHLHE40/4 in DMRs with ≥20% gain in methylation", "setting": "[4]", "result": 4.61}, {"measurement": "NES score of TFBS FOS in DMRs with ≥20% gain in methylation", "setting": "[4]", "result": "4.2 and 3.4"}, {"measurement": "NES score of TFBS HMBOX1 in DMRs with ≥20% gain in methylation", "setting": "[4]", "result": 3.749}, {"measurement": "NES score of TFBS HSF1 in DMRs with ≥20% gain in methylation", "setting": "[4]", "result": 7.2}, {"measurement": "NES score of TFBS KDM5D in DMRs with ≥20% gain in methylation", "setting": "[4]", "result": 3.77}, {"measurement": "NES score of TFBS LEF1 in DMRs with ≥20% gain in methylation", "setting": "[4]", "result": 3.01}, {"measurement": "NES score of TFBS LSM6 in DMRs with ≥20% gain in methylation", "setting": "[4]", "result": 3.05}, {"measurement": "NES score of TFBS OCT4 in DMRs with ≥20% gain in methylation", "setting": "[4]", "result": "3.49 and 3.4 and 3.37"}, {"measurement": "NES score of TFBS POU1F1 in DMRs with ≥20% gain in methylation", "setting": "[4]", "result": "4.02 and 3.98"}, {"measurement": "NES score of TFBS REST in DMRs with ≥20% gain in methylation", "setting": "[4]", "result": "4.85 and 3.16 and 3.11"}, {"measurement": "NES score of TFBS STAT3 in DMRs with ≥20% gain in methylation", "setting": "[4]", "result": 3.22}, {"measurement": "NES score of TFBS ZKSCAN8 in DMRs with ≥20% gain in methylation", "setting": "[4]", "result": 4.32}, {"measurement": "NES score of TFBS ZNF493 in DMRs with ≥20% gain in methylation", "setting": "[4]", "result": 3.88}, {"measurement": "number of DMRs with ≥20% gain in methylation", "setting": "[4]", "result": "(n = 124)"}, {"measurement": "expression of cleaved caspase 3 compared to control cells", "setting": "[5]; cancer cells in lungs, pre-treated cells, day 1", "result": "significant increase"}, {"measurement": "ability of BR16 cells to lodge in the lung tissue immediately after injection (bioluminescence flux)", "setting": "[5]; cells pre-treated 17 days in vitro, 20 nM, tail vein, day 0", "result": "did not affect"}, {"measurement": "ability to survive during the first day upon arrival (bioluminescence flux)", "setting": "[5]; cells pre-treated 17 days in vitro, 20 nM, tail vein, day 1", "result": "reduced ability to survive"}, {"measurement": "metastatic outgrowth", "setting": "[5]; pre-treated cells, no further treatment in vivo, 72 days upon injection", "result": "delayed metastatic outgrowth"}]}
